Measured values: ChEMBL document CHEMBL6114971, “Design, synthesis and biological evaluation of benzo[b]thiophene analogues as novel ferroptosis inhibitor that inhibit fibrosarcoma cell proliferation” (Bioorg Med Chem, 2025)
Active and inactive are the calls of the source. The calls are words filed in the database; no cut-off is given here.

Columns and labels:
HT-1080 [1] = test: Antiproliferative activity against human HT-1080 cells measured after 72 hrs by MTT assay; format: functional, cell-based; conditions: HT-1080, 72 h
A549 = test: Antiproliferative activity against human A549 cells measured after 72 hrs by MTT assay; format: functional, cell-based; conditions: A549, 72 h
MGC-803 = test: Antiproliferative activity against human MGC-803 cells measured after 72 hrs by MTT assay; format: functional, cell-based; conditions: MGC-803, 72 h
4T1 = test: Antiproliferative activity against mouse 4T1 cells measured after 72 hrs by MTT assay; format: functional, cell-based; conditions: 4T1, 72 h
[2] = Cytotoxicity against HUVEC measured after 72 hrs by MTT assay; format: toxicity, cell-based; conditions: human
HT-1080 [3] = test: Antiproliferative activity against human HT-1080 cells measured after 72 hrs in presence of ferroptosis inhibitor Fer-1 by MTT assay; format: functional, cell-based; conditions: HT-1080, 72 h
[4] = Selectivity ratio of IC50 for antiproliferative activity against human HT-1080 cells in presence of ferroptosis inhibitor Fer-1 to IC50 for antiproliferative activity against human HT-1080 cells; format: functional
[5] = biological target: T1, Phospholipid hydroperoxide glutathione peroxidase GPX4 (Homo sapiens) (UniProt P36969); test: Inhibition of GPX4 activity in human HT-1080 cells assessed as down regulation of GPX4 level at 2 uM measured after 24 hrs by Western blotting analysis; format: cell-based
T1 sequence (whole entry): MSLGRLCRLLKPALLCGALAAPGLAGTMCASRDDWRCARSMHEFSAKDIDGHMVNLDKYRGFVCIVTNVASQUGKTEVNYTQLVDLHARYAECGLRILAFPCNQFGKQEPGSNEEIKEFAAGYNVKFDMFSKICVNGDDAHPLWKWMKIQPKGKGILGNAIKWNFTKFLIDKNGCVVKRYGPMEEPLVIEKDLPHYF

[6] = Selectivity index, ratio of IC50 for human GES1 cells to IC50 for human HT-1080; format: toxicity; conditions: GES1 cells versus HT-1080 cells, read-out: Ratio IC50
[7] = Cytotoxicity against human GES1 cells measured after 72 hrs by MTT assay; format: toxicity, cell-based
HT-1080 [8] = test: Induction of ROS generation in human HT-1080 cells assessed as intracellular ROS level at 2 uM measured after 24 hrs by DCFH-DA probe based flow cytometry (reference value: 33%); format: functional
HT-1080 [9] = test: Reduction in GPX4 mRNA level in human HT-1080 cells at 2 uM measured after 24 hrs by qRT-PCR analysis; format: functional, cell-based
[10] = Selectivity index, ratio of IC50 for HUVEC to IC50 for human HT-1080; format: toxicity; conditions: HUVEC versus HT-1080 cells, read-out: Ratio IC50

Compound	IC50 (HT-1080 [1]) [µM]	IC50 (A549) [µM]	IC50 (MGC-803) [µM]	IC50 (4T1) [µM]	IC50 (HT-1080 [3]) [µM]	IC50 at 72 h [2] [µM]	Ratio IC50 [4]	inhibition [5]	selectivity ratio [6]	IC50 at 72 h [7] [µM]	Activity (HT-1080 [8]) [%]	Activity (HT-1080 [9])	selectivity ratio [10]
COc1ccc(N(Cc2c[nH]c3ccccc23)C(=O)CCl)cc1	12.4	> 20	11.7	15.8	–	–	–	–	–	–	–	–	–
O=C(CCl)N(Cc1cc2ccccc2s1)c1ccccc1	18	15.4	6.73	> 20	–	–	–	–	–	–	–	–	–
O=C(CCl)N(Cc1cc2ccccc2s1)c1cccc(C(F)(F)F)c1	13.6	> 20	12	17.8	–	–	–	–	–	–	–	–	–
COc1ccc(N(Cc2csc3ccccc23)C(=O)CCl)cc1	14	> 20	16.9	> 20	–	–	–	–	–	–	–	–	–
COC(=O)c1ccc([C@H]2c3[nH]c4ccccc4c3C[C@H](C(=O)OC)N2C(=O)CCl)cc1	–	> 20	12.2	18.4	2.28	32.1	1.88	Active	51.5	62.3	87.6	Active	26.6
O=C(CCl)N(Cc1c[nH]c2ccccc12)c1ccccc1	7.86	> 20	13.2	> 20	–	–	–	–	–	–	–	–	–
O=C(CCl)N(Cc1csc2ccccc12)c1cccc(C(F)(F)F)c1	11.1	19.3	7.95	> 20	–	–	–	–	–	–	–	–	–
O=C(CCl)N(Cc1ccccc1)Cc1csc2ccccc12	> 20	> 20	> 20	8.52	–	–	–	–	–	–	–	–	–
O=C(CCl)N(Cc1c[nH]c2ccccc12)c1ccc(F)cc1	7.21	16	9.09	> 20	–	–	–	–	–	–	–	–	–
O=C(CCl)N(Cc1ccsc1)c1ccc(F)cc1	5.21	> 20	15.1	> 20	–	–	–	–	–	–	–	–	–
COc1ccc(N(Cc2csc3ccccc23)C(=O)CCl)cc1OC	4.22	15.2	2.42	> 20	–	–	–	–	–	–	–	–	–
CCCCN(Cc1cc2ccccc2s1)C(=O)CCl	3.73	> 20	> 20	5.31	6	8.58	1.5	Active; Significant Down Regulation Observed	30.9	123	–	–	2.15
CCOc1ccccc1-n1c(C(C)N2CCN(C(=O)COc3ccc(Cl)cc3)CC2)nc2ccccc2c1=O (configuration not stated) [ERASTIN]	3.54	> 20	> 20	12.7	–	–	–	–	–	–	–	–	–
COc1ccc(N(Cc2c[nH]c3ccccc23)C(=O)CCl)cc1OC	15	16.7	7.19	> 20	–	–	–	–	–	–	–	–	–
O=C(CCl)N(Cc1csc2ccccc12)c1ccccc1	11.2	> 20	10.3	> 20	–	–	–	–	–	–	–	–	–
O=C(CCl)N(Cc1cc2ccccc2s1)c1ccc(F)cc1	10.4	> 20	7.09	> 20	–	–	–	–	–	–	–	–	–
O=C(CCl)N(Cc1ccoc1)c1ccc(F)cc1	6.06	> 20	16.7	12.1	–	–	–	–	–	–	–	–	–
O=C(CCl)N(Cc1csc2ccccc12)c1ccc(F)cc1	12.3	> 20	13.4	> 20	–	–	–	–	–	–	–	–	–
O=C(CCl)N(Cc1cc2ccccc2[nH]1)c1ccc(F)cc1	9.26	> 20	7.32	12.4	–	–	–	–	–	–	–	–	–
COc1ccc(N(Cc2cc3ccccc3[nH]2)C(=O)CCl)cc1	11.8	> 20	> 20	18.8	–	–	–	–	–	–	–	–	–
COc1cc(N(C)Cc2csc3ccccc23)cc(OC)c1OC	–	–	–	–	–	–	–	–	–	–	–	inactive	–
COc1ccc(N(Cc2csc3ccccc23)C(=O)CCl)cc1Cl	3.99	> 20	> 20	7.77	–	–	–	–	–	–	–	–	–
O=C(CCl)N(Cc1cc2ccccc2[nH]1)c1ccccc1	15.3	> 20	13.8	> 20	–	–	–	–	–	–	–	–	–
COc1ccc(N(Cc2cc3ccccc3s2)C(=O)CCl)cc1	> 20	18.3	10.1	> 20	–	–	–	inactive	–	–	–	–	–
O=C(CCl)N(Cc1ccsc1)c1ccccc1	4.73	> 20	19.8	7.34	–	–	–	–	–	–	–	–	–
O=C(CCl)N(Cc1ccoc1)c1ccccc1	14.2	> 20	> 20	14.1	–	–	–	–	–	–	–	–	–

Now from value to compound, other results behind:

IC50 (HT-1080 [1]) [µM]	IC50 (A549) [µM]	IC50 (MGC-803) [µM]	IC50 (4T1) [µM]	IC50 (HT-1080 [3]) [µM]	Compound	IC50 at 72 h [2] [µM]	Ratio IC50 [4]	inhibition [5]	selectivity ratio [6]	IC50 at 72 h [7] [µM]	Activity (HT-1080 [8]) [%]	Activity (HT-1080 [9])	selectivity ratio [10]
> 20	18.9	> 20	12.9	–	COc1cc(N(Cc2ccc3ccccc3n2)C(=O)c2noc(C)c2[N+](=O)[O-])cc(OC)c1OC	–	–	–	–	–	–	–	–
> 20	> 20	> 20	10.2	–	COc1cc(N(Cc2csc3ccccc23)C(=O)c2noc(C)c2[N+](=O)[O-])cc(OC)c1OC	–	–	–	–	–	–	–	–
3.59	> 20	2.08	> 20	4.13	COc1cc(N(Cc2cc3ccccc3s2)C(=O)CCl)cc(OC)c1OC	10.5	1.15	Active; Significant Down Regulation Observed	18.4	68.8	–	–	2.8
4.21	> 20	> 20	5.97	–	COc1cc(N(Cc2ccoc2)C(=O)CCl)cc(OC)c1OC	–	–	–	–	–	–	–	–
> 20	> 20	> 20	14.4	–	COc1cc(N(Cc2ccsc2)C(=O)c2noc(C)c2[N+](=O)[O-])cc(OC)c1OC	–	–	–	–	–	–	–	–
8.98	16.9	1.8	> 20	–	COc1ccc(N(Cc2cc3ccccc3s2)C(=O)CCl)cc1OC	–	–	–	–	–	–	–	–
3.61	> 20	14.1	11.2	6.3	COc1cc(N(Cc2ccsc2)C(=O)CCl)cc(OC)c1OC	15.4	1.74	Active; Significant Down Regulation Observed	17.3	62.3	–	–	4.27
> 20	> 20	> 20	> 20	–	COc1cc(N(Cc2ccoc2)C(=O)c2noc(C)c2[N+](=O)[O-])cc(OC)c1OC	–	–	–	–	–	–	–	–
> 20	> 20	> 20	> 20	–	Cc1onc(C(=O)N(Cc2csc3ccccc23)c2ccccc2)c1[N+](=O)[O-]	–	–	–	–	–	–	–	–
5.25	> 20	> 20	3.48	15.6	COc1ccc(N(Cc2csc3ccccc23)C(=O)c2noc(C)c2[N+](=O)[O-])cc1OC	31.8	2.98	Active; Significant Down Regulation Observed	16.6	87.3	–	–	6.06
> 20	> 20	> 20	10.2	–	Cc1onc(C(=O)N(Cc2csc3ccccc23)c2ccc(F)cc2)c1[N+](=O)[O-]	–	–	–	–	–	–	–	–
